Results as given in article PMC7044277 (Nature Communications, 2020).
“And” between values parts separate entries of the source, which are not always exact repeats. Identical values can stand only once.

Key:
320 non-olfactory GPCRs [1] = target: 320 non-olfactory GPCRs (Homo sapiens, UniProt P30872); assay type: cell-based; design: GPCRome screening signal at PTGIR / GPCRome screening signal at PTH1R / GPCRome screening signal at PTH2R / GPCRome screening signal at QRFP / GPCRome screening signal at RXFP2 / GPCRome screening signal at RXFP3 / GPCRome screening signal at RXFP4 / GPCRome screening signal at S1PR2 / GPCRome screening signal at S1PR3 / GPCRome screening signal at S1PR4 / GPCRome screening signal at S1PR5 / GPCRome screening signal at SCTR / GPCRome screening signal at SSTR2 / GPCRome screening signal at SSSTR / GPCRome screening signal at SSTR4 / GPCRome screening signal at SSTR5 / GPCRome screening signal at SUCNR1 / GPCRome screening signal at TA1 / GPCRome screening signal at TAAR2 / GPCRome screening signal at TAAR5 / GPCRome screening signal at TAAR6 / GPCRome screening signal at TAAR8 / GPCRome screening signal at TACR1 / GPCRome screening signal at TACR2 / GPCRome screening signal at TACR3 / GPCRome screening signal at TBXA2R / GPCRome screening signal at TSHR / GPCRome screening signal at UTS2R / GPCRome screening signal at VIPR2 / GPCRome screening signal at GPR68 no V2 Tail / GPCRome screening signal at GRM2 / GPCRome screening signal at GRM3: reference not given here; conditions: receptor SSTR1; Fig_5f, single replicate values
320 non-olfactory GPCRs [2] = target: T1, 320 non-olfactory GPCRs (Homo sapiens, UniProt Q9P1P5); assay type: cell-based; design: GPCRome screening signal at PTGIR / GPCRome screening signal at PTH1R / GPCRome screening signal at PTH2R / GPCRome screening signal at QRFP / GPCRome screening signal at RXFP2 / GPCRome screening signal at RXFP3 / GPCRome screening signal at RXFP4 / GPCRome screening signal at S1PR2 / GPCRome screening signal at S1PR3 / GPCRome screening signal at S1PR4 / GPCRome screening signal at S1PR5 / GPCRome screening signal at SCTR / GPCRome screening signal at SSTR2 / GPCRome screening signal at SSSTR / GPCRome screening signal at SSTR4 / GPCRome screening signal at SSTR5 / GPCRome screening signal at SUCNR1 / GPCRome screening signal at TA1 / GPCRome screening signal at TAAR2 / GPCRome screening signal at TAAR5 / GPCRome screening signal at TAAR6 / GPCRome screening signal at TAAR8 / GPCRome screening signal at TACR1 / GPCRome screening signal at TACR2 / GPCRome screening signal at TACR3 / GPCRome screening signal at TBXA2R / GPCRome screening signal at TSHR / GPCRome screening signal at UTS2R / GPCRome screening signal at VIPR2 / GPCRome screening signal at GPR68 no V2 Tail / GPCRome screening signal at GRM2 / GPCRome screening signal at GRM3: reference not given here; conditions: receptor TAAR2; Fig_5f, single replicate values
T1 construct: expressed in transfected cells; host or cells: HTLA cells
T1 sequence (Q9P1P5 whole entry): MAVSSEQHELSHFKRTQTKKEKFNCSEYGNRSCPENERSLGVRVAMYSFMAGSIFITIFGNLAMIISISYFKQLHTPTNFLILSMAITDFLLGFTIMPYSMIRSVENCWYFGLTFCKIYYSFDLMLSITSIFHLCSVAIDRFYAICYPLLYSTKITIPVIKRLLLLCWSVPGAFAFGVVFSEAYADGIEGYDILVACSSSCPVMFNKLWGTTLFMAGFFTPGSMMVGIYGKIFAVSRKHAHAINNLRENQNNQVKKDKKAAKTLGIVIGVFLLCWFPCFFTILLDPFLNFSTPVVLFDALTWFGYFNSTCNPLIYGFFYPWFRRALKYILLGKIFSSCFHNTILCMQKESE

Chain of 320 non-olfactory GPCRs (Homo sapiens, UniProt P30872) (P30872 whole entry): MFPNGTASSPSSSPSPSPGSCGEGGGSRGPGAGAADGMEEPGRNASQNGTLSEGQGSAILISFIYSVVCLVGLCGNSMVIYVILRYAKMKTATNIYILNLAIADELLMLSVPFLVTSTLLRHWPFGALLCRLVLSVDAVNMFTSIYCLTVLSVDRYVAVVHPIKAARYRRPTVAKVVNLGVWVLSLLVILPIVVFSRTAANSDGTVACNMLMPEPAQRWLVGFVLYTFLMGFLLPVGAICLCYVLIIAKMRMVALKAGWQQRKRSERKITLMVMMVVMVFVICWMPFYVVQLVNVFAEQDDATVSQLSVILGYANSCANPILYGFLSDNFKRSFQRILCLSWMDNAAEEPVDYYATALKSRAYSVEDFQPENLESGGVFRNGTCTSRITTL

CCOc1ccccc1CCC(C)NCC1(O)CCCCC1.Cl (racemic) [Fig_5f]
GPCRome screening signal at SSTR1 (320 non-olfactory GPCRs [1]): 2.563 and 1.311 and 1.193 and 0.9402 | GPCRome screening signal at TAAR2 (320 non-olfactory GPCRs [2]): 1.515 and 0.6858 and 1.3165 and 0.7903
